# Reference: patent publication US20230301300A1, “HERBICIDAL COMPOSITIONS” (SYNGENTA CROP PROTECTION AG, priority 2020, published 2023)
# Legend:
# Assay in all cases: B2 Post-Emergence Efficacy - Test 2
# Assay type in all cases: in vivo
# [1] = system: Abutilon theophrasti (ABUTH); conditions: 15 days after application, 0-100 scale
# In short: (§1)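 The compound, dissolved in IF50 and made up as an aqueous spray with 0.2% v/v Genapol X080, is applied post-emergence to plants raised for 12 days from seed. Injury is assessed 15 days afterwards, 0 for undamaged through 100 for fully killed.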
# [2] = system: Alopecurus myosuroides (ALOMY); conditions: 15 days after application, 0-100 scale
# In short: as §1
# [3] = system: Ipomoea hederacea (IPOHE); conditions: 15 days after application, 0-100 scale
# In short: as §1
# [4] = system: Echinochloa crus galli (ECHCG); conditions: 15 days after application, 0=no damage, 100=total kill
# In short: as §1
# Orysa sativa (ORYSA) = conditions: 15 days after application; for Herbicidal activity ORYSA: 0-100 scale; for Herbicidal activity on a 0-100 scale, ORYSA: 0=no damage, 100=total kill
# In short: as §1
# Veronica persica (VERPE) = conditions: 15 days after application, 0-100 scale
# In short: as §1
# [5] = system: Euphorbia hetrophylla (EPHHL); conditions: 15 days after application, 0-100 scale
# In short: as §1
# [6] = system: Digitaria sanguinalis (DIGSA); conditions: 15 days after application, 0=no damage, 100=total kill
# In short: as §1
# Sinapis arvensis (SINAR) = conditions: 15 days after application, 0-100 scale
# In short: as §1
# Sida spinosa (SIDSP) = conditions: 15 days after application, 0-100 scale
# In short: as §1
# [7] = system: Xanthium strumarium (XANST); conditions: 15 days after application, 0-100 scale
# In short: as §1
# Lolium perenne (LOLPE) = conditions: 15 days after application, 0-100 scale
# In short: as §1
# Sorghum bicolour (SORVU) = conditions: 15 days after application, 0=no damage, 100=total kill
# In short: as §1
# Bidens pilosa (BIDPI) = conditions: 15 days after application, 0-100 scale
# In short: as §1
# [8] = system: Panicum miliaceum (PANMI); conditions: 15 days after application, 0=no damage, 100=total kill
# In short: as §1
# Beta vulgaris (BEAVA) = conditions: 15 days after application, 0-100 scale
# In short: as §1
# Galium aparine (GALAP) = conditions: 15 days after application, 0-100 scale
# In short: as §1
# Poa annua (POAAN) = conditions: 15 days after application, 0-100 scale
# In short: as §1
smiles,measurement,setting,value
"Cc1nn(C)c(=O)c(-c2c(F)ccc(Cl)c2CCc2ccc(Cl)cc2)c1OC(=O)C(C)C [Compound 1.089, [5-[3-chloro-2-[2-(4-chlorophenyl)ethyl]-6-fluoro-phenyl]-1,3-dimethyl-6-oxo-pyridazin-4-yl] 2-methylpropanoate]",Herbicidal activity ABUTH,[1]; 15 g/Ha,70
same,Herbicidal activity ABUTH,[1]; 30 g/Ha,90
same,Herbicidal activity ABUTH,[1]; 60 g/Ha,100
same,Herbicidal activity ABUTH,[1]; 125 g/Ha,100
same,Herbicidal activity ABUTH,[1]; 250 g/Ha,100
same,Herbicidal activity ABUTH,[1]; 500 g/Ha,100
same,Herbicidal activity ALOMY,[2]; 15 g/Ha,20
same,Herbicidal activity ALOMY,[2]; 30 g/Ha,50
same,Herbicidal activity ALOMY,[2]; 60 g/Ha,50
same,Herbicidal activity ALOMY,[2]; 125 g/Ha,80
same,Herbicidal activity ALOMY,[2]; 250 g/Ha,80
same,Herbicidal activity ALOMY,[2]; 500 g/Ha,90
same,Herbicidal activity IPOHE,[3]; 15 g/Ha,100
same,Herbicidal activity IPOHE,[3]; 30 g/Ha,100
same,Herbicidal activity IPOHE,[3]; 60 g/Ha,100
same,Herbicidal activity IPOHE,[3]; 125 g/Ha,100
same,Herbicidal activity IPOHE,[3]; 250 g/Ha,100
same,Herbicidal activity IPOHE,[3]; 500 g/Ha,100
same,"Herbicidal activity on a 0-100 scale, ECHCG",[4]; 15 g/Ha,80
same,"Herbicidal activity on a 0-100 scale, ECHCG",[4]; 30 g/Ha,80
same,"Herbicidal activity on a 0-100 scale, ECHCG",[4]; 60 g/Ha,80
same,"Herbicidal activity on a 0-100 scale, ECHCG",[4]; 125 g/Ha,90
same,"Herbicidal activity on a 0-100 scale, ECHCG",[4]; 250 g/Ha,90
same,"Herbicidal activity on a 0-100 scale, ECHCG",[4]; 500 g/Ha,100
same,Herbicidal activity ORYSA,Orysa sativa (ORYSA); 15 g/Ha,0
same,"Herbicidal activity on a 0-100 scale, ORYSA",Orysa sativa (ORYSA); 15 g/Ha,0
same,Herbicidal activity ORYSA,Orysa sativa (ORYSA); 30 g/Ha,0
same,"Herbicidal activity on a 0-100 scale, ORYSA",Orysa sativa (ORYSA); 30 g/Ha,0
same,Herbicidal activity ORYSA,Orysa sativa (ORYSA); 60 g/Ha,0
same,"Herbicidal activity on a 0-100 scale, ORYSA",Orysa sativa (ORYSA); 60 g/Ha,0
same,Herbicidal activity ORYSA,Orysa sativa (ORYSA); 125 g/Ha,10
same,"Herbicidal activity on a 0-100 scale, ORYSA",Orysa sativa (ORYSA); 125 g/Ha,10
same,Herbicidal activity ORYSA,Orysa sativa (ORYSA); 250 g/Ha,20
same,"Herbicidal activity on a 0-100 scale, ORYSA",Orysa sativa (ORYSA); 250 g/Ha,20
same,Herbicidal activity ORYSA,Orysa sativa (ORYSA); 500 g/Ha,50
same,"Herbicidal activity on a 0-100 scale, ORYSA",Orysa sativa (ORYSA); 500 g/Ha,50
same,Herbicidal activity VERPE,Veronica persica (VERPE); 15 g/Ha,70
same,Herbicidal activity VERPE,Veronica persica (VERPE); 30 g/Ha,80
same,Herbicidal activity VERPE,Veronica persica (VERPE); 60 g/Ha,90
same,Herbicidal activity VERPE,Veronica persica (VERPE); 125 g/Ha,90
same,Herbicidal activity VERPE,Veronica persica (VERPE); 250 g/Ha,100
same,Herbicidal activity VERPE,Veronica persica (VERPE); 500 g/Ha,100
same,Herbicidal activity EPHHL,[5]; 15 g/Ha,80
same,Herbicidal activity EPHHL,[5]; 30 g/Ha,100
same,Herbicidal activity EPHHL,[5]; 60 g/Ha,100
same,Herbicidal activity EPHHL,[5]; 125 g/Ha,100
same,Herbicidal activity EPHHL,[5]; 250 g/Ha,100
same,Herbicidal activity EPHHL,[5]; 500 g/Ha,100
same,"Herbicidal activity on a 0-100 scale, DIGSA",[6]; 15 g/Ha,0
same,"Herbicidal activity on a 0-100 scale, DIGSA",[6]; 30 g/Ha,0
same,"Herbicidal activity on a 0-100 scale, DIGSA",[6]; 60 g/Ha,0
same,"Herbicidal activity on a 0-100 scale, DIGSA",[6]; 125 g/Ha,10
same,"Herbicidal activity on a 0-100 scale, DIGSA",[6]; 250 g/Ha,40
same,"Herbicidal activity on a 0-100 scale, DIGSA",[6]; 500 g/Ha,30
same,Herbicidal activity SINAR,Sinapis arvensis (SINAR); 15 g/Ha,70
same,Herbicidal activity SINAR,Sinapis arvensis (SINAR); 30 g/Ha,80
same,Herbicidal activity SINAR,Sinapis arvensis (SINAR); 60 g/Ha,90
same,Herbicidal activity SINAR,Sinapis arvensis (SINAR); 125 g/Ha,90
same,Herbicidal activity SINAR,Sinapis arvensis (SINAR); 250 g/Ha,90
same,Herbicidal activity SINAR,Sinapis arvensis (SINAR); 500 g/Ha,90
same,Herbicidal activity SIDSP,Sida spinosa (SIDSP); 30 g/Ha,80
same,Herbicidal activity SIDSP,Sida spinosa (SIDSP); 60 g/Ha,90
same,Herbicidal activity SIDSP,Sida spinosa (SIDSP); 125 g/Ha,100
same,Herbicidal activity SIDSP,Sida spinosa (SIDSP); 250 g/Ha,100
same,Herbicidal activity SIDSP,Sida spinosa (SIDSP); 500 g/Ha,100
same,Herbicidal activity XANST,[7]; 30 g/Ha,90
same,Herbicidal activity XANST,[7]; 60 g/Ha,80
same,Herbicidal activity XANST,[7]; 125 g/Ha,90
same,Herbicidal activity XANST,[7]; 250 g/Ha,90
same,Herbicidal activity XANST,[7]; 500 g/Ha,100
same,Herbicidal activity LOLPE,Lolium perenne (LOLPE); 15 g/Ha,40
same,Herbicidal activity LOLPE,Lolium perenne (LOLPE); 30 g/Ha,70
same,Herbicidal activity LOLPE,Lolium perenne (LOLPE); 60 g/Ha,80
same,Herbicidal activity LOLPE,Lolium perenne (LOLPE); 125 g/Ha,90
same,Herbicidal activity LOLPE,Lolium perenne (LOLPE); 250 g/Ha,90
same,Herbicidal activity LOLPE,Lolium perenne (LOLPE); 500 g/Ha,90
same,"Herbicidal activity on a 0-100 scale, SORVU",Sorghum bicolour (SORVU); 15 g/Ha,0
same,"Herbicidal activity on a 0-100 scale, SORVU",Sorghum bicolour (SORVU); 30 g/Ha,60
same,"Herbicidal activity on a 0-100 scale, SORVU",Sorghum bicolour (SORVU); 60 g/Ha,70
same,"Herbicidal activity on a 0-100 scale, SORVU",Sorghum bicolour (SORVU); 125 g/Ha,90
same,"Herbicidal activity on a 0-100 scale, SORVU",Sorghum bicolour (SORVU); 250 g/Ha,90
same,"Herbicidal activity on a 0-100 scale, SORVU",Sorghum bicolour (SORVU); 500 g/Ha,90
same,Herbicidal activity BIDPI,Bidens pilosa (BIDPI); 15 g/Ha,70
same,Herbicidal activity BIDPI,Bidens pilosa (BIDPI); 30 g/Ha,60
same,Herbicidal activity BIDPI,Bidens pilosa (BIDPI); 60 g/Ha,70
same,Herbicidal activity BIDPI,Bidens pilosa (BIDPI); 125 g/Ha,80
same,Herbicidal activity BIDPI,Bidens pilosa (BIDPI); 250 g/Ha,80
same,Herbicidal activity BIDPI,Bidens pilosa (BIDPI); 500 g/Ha,100
same,"Herbicidal activity on a 0-100 scale, PANMI",[8]; 15 g/Ha,0
same,"Herbicidal activity on a 0-100 scale, PANMI",[8]; 30 g/Ha,20
same,"Herbicidal activity on a 0-100 scale, PANMI",[8]; 60 g/Ha,50
same,"Herbicidal activity on a 0-100 scale, PANMI",[8]; 125 g/Ha,60
same,"Herbicidal activity on a 0-100 scale, PANMI",[8]; 250 g/Ha,80
same,"Herbicidal activity on a 0-100 scale, PANMI",[8]; 500 g/Ha,90
same,Herbicidal activity BEAVA,Beta vulgaris (BEAVA); 15 g/Ha,90
same,Herbicidal activity BEAVA,Beta vulgaris (BEAVA); 30 g/Ha,80
same,Herbicidal activity BEAVA,Beta vulgaris (BEAVA); 60 g/Ha,80
same,Herbicidal activity BEAVA,Beta vulgaris (BEAVA); 125 g/Ha,80
same,Herbicidal activity BEAVA,Beta vulgaris (BEAVA); 250 g/Ha,90
same,Herbicidal activity BEAVA,Beta vulgaris (BEAVA); 500 g/Ha,90
same,Herbicidal activity GALAP,Galium aparine (GALAP); 15 g/Ha,10
same,Herbicidal activity GALAP,Galium aparine (GALAP); 30 g/Ha,20
same,Herbicidal activity GALAP,Galium aparine (GALAP); 125 g/Ha,30
same,Herbicidal activity GALAP,Galium aparine (GALAP); 250 g/Ha,30
same,Herbicidal activity GALAP,Galium aparine (GALAP); 500 g/Ha,90
same,Herbicidal activity POAAN,Poa annua (POAAN); 15 g/Ha,20
same,Herbicidal activity POAAN,Poa annua (POAAN); 30 g/Ha,40
same,Herbicidal activity POAAN,Poa annua (POAAN); 60 g/Ha,70
same,Herbicidal activity POAAN,Poa annua (POAAN); 125 g/Ha,90
same,Herbicidal activity POAAN,Poa annua (POAAN); 250 g/Ha,80
same,Herbicidal activity POAAN,Poa annua (POAAN); 500 g/Ha,70
